# Results published in patent US10450549B2, “Aryloxyphenoxypropionate tolerance in turfrgass species and use of AAD1 as a selectable marker” (Dow AgroSciences, LLC, priority 2004, dated 2019).
# How the values were obtained:
# [1] = test system: AAD1 (v3)-transformed T1 Arabidopsis; test: T1 Arabidopsis response to postemergence herbicide (2,4-D, dichlorprop, haloxyfop, fluroxypyr), % visual injury 2 WAT: AAD1 (v3) transformants; assay type: in vivo, Arabidopsis thaliana; details: for % Injury Ave / % Injury Range / individuals with 20-40% injury / individuals with <20% injury / individuals with >40% injury / % Injury 20-40% / % Injury <20% / % Injury >40%: 2 WAT; for resistance/tolerance in AAD1 (v3)-transformed T1 Arabidopsis: haloxyfop 400-1,600 g ae/ha, fluroxypyr; for % Injury 20-40% / % Injury <20% / % Injury >40%: number of individuals
# Method: Freshly harvested T1 seed (transformed with native [AAD1 (v2)] or plant optimized [AAD1 (v3)] gene) was allowed to dry for 7 days at room temperature. T1 seed was sown in 26.5×51-cm germination trays (T.O. Plastics Inc., Clearwater, Minn.), each receiving a 200 mg aliquots of stratified T1 seed (˜10,000 seed) that had previously been suspended in 40 ml of 0.1% agarose solution and stored at 4° C. for 2 days to complete dormancy requirements and ensure synchronous seed germination.
# Sunshine Mix LP5 (Sun Gro Horticulture Inc., Bellevue, Wash.) was covered with fine vermiculite and subirrigated with Hoagland's solution until wet, then allowed to gravity drain. Each 40 ml aliquot of stratified seed was sown evenly onto the vermiculite with a pipette and covered with humidity domes (KORD Products, Bramalea, Ontario, Canada) for 4-5 days. Domes were removed 1 day prior to initial transformant selection using glufosinate postemergence spray (selecting for the co-transformed PAT gene).
# Five to six days after planting (DAP) and again 10 DAP, T1 plants (cotyledon and 2-4-1f stage, respectively) were sprayed with a 0.2% solution of Liberty herbicide (200 g ai/L glufosinate, Bayer Crop Sciences, Kansas City, Mo.) at a spray volume of 10 ml/tray (703 L/ha) using a DeVilbiss compressed air spray tip to deliver an effective rate of 280 g ai/ha glufosinate per application. Survivors (plants actively growing) were identified 5-7 days after the final spraying and transplanted individually into 3-inch pots prepared with potting media (Metro Mix 360). Transplanted plants were covered with humidity domes for 3-4 days and placed in a 22° C. growth chamber as before. Domes were subsequently removed and plants moved to the greenhouse (22+5° C., 50+30% RH, 14 h light:10 dark, minimum 500 μE/m^2s^1 natural+supplemental light) at least 1 day prior to testing for the ability of AAD1 (v3) (plant optimized gene) or AAD1 (v2) (native microbial gene) to provide phenoxy auxin herbicide resistance.
# Random individual T1 plants selected for glufosinate resistance above were confirmed for expression of the PAT protein using a PAT ELISA kit (Part no. 7000045, Strategic Diagnostics, Inc., Newark, Del.) to non-destructively confirm fidelity of selection process (manufacturer's protocol). Plants were then randomly assigned to various rates of phenoxy herbicides (dichlorprop or 2,4-D). […] Elevated rates were applied in subsequent trials (50, 200, 800, or 3200 g ae/ha).
# All auxin herbicide applications were made using the DeVilbiss sprayer as described above to apply 703 L/ha spray volume (0.4 ml solution/3-inch pot) or applied by track sprayer in a 187 L/ha spray volume. […] Dichlorprop used was technical grade (Sigma, St. Louis, Mo.) dissolved in DMSO and diluted in water (<1% DMSO final concentration). As herbicide rates increased beyond 800 g ae/ha, the pH of the spray solution became exceedingly acidic, burning the leaves of young, tender Arabidopsis plants and complicating evaluation of the primary effects of the herbicides. It became standard practice to apply these high rates of phenoxy herbicides in 200 mM Tris buffer (pH 9.0) to a final pH of ˜7-8.
# Although Arabidopsis, being a dicot, is not an optimal system for testing ACCase-inhibiting AOPP grass herbicides, AAD1 (v3)-transformed T1 plants were subjected to elevated rates (400-1600 g ae/ha) of RS-haloxyfop acid (internally synthesized) that do cause growth abnormalities and death of wildtype Arabidopsis using the DeVilbiss sprayer as described above. Injury ratings were taken 7 and 14 days after treatment. Likewise, T1 individuals were treated with the pyridyloxyacetate auxin herbicide, fluroxypyr.
# Table 16. […] Response is presented in terms of % visual injury 2 WAT. […] Since each T1 is an independent transformation event, one can expect significant variation of individual T1 responses within a given rate. An arithmetic mean and standard deviation is presented for each treatment. […]
# AAD1 (v1) = target: T1, AAD1 (v1) (Sphingobium herbicidovorans, UniProt Q8KSC8); test: HPLC analysis of herbicide degradation by AAD1 (v1) cell extract; assay type: biochemical
# T1 construct: made in house; host or cells: E. coli BL-21 Star (DE3), plasmid pDAB3203
# [2] = test system: AAD1 (v3)-transformed T0 corn events; test: Tolerance of T0 AAD1 (v3) corn plants (pDAB3404) to postemergence AOPP herbicides; assay type: in vivo
# [3] = Rebuilt AAD1 (v3) gene, 50 g ae/ha
# [4] = Rebuilt AAD1 (v3) gene, 200 g ae/ha
# [5] = Rebuilt AAD1 (v3) gene, 800 g ae/ha
# T1 sequence (Q8KSC8 whole entry): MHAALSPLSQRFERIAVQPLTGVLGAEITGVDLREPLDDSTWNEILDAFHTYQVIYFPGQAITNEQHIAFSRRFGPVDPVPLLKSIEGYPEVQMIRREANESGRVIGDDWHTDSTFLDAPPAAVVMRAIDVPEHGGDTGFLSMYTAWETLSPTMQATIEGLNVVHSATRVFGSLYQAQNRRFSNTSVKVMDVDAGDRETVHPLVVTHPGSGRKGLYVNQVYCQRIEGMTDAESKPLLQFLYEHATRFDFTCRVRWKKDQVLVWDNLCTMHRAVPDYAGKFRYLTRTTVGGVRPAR
smiles,measurement,setting,value
"CC(Oc1ccc(Cl)cc1Cl)C(=O)O (racemic) [(R,S)-dichlorprop, 2,4-dichlorophenoxypropionic acid]",% Injury Ave,"[1]; AAD1 v3, 12.5 g ae/ha",5.0%
same,% Injury Range,"[1]; AAD1 v3, 12.5 g ae/ha",0-20%
same,individuals with 20-40% injury,"[1]; AAD1 v3, 12.5 g ae/ha",1
same,individuals with <20% injury,"[1]; AAD1 v3, 12.5 g ae/ha",7
same,individuals with >40% injury,"[1]; AAD1 v3, 12.5 g ae/ha",0
same,% Injury Ave,"[1]; AAD1 v3, 50 g ae/ha",3.1%
same,% Injury Range,"[1]; AAD1 v3, 50 g ae/ha",0-25%
same,individuals with 20-40% injury,"[1]; AAD1 v3, 50 g ae/ha",1
same,individuals with <20% injury,"[1]; AAD1 v3, 50 g ae/ha",7
same,individuals with >40% injury,"[1]; AAD1 v3, 50 g ae/ha",0
same,% Injury Ave,"[1]; AAD1 v3, 200 g ae/ha",40.0%
same,% Injury Range,"[1]; AAD1 v3, 200 g ae/ha",0-100%
same,individuals with 20-40% injury,"[1]; AAD1 v3, 200 g ae/ha",1
same,individuals with <20% injury,"[1]; AAD1 v3, 200 g ae/ha",4
same,individuals with >40% injury,"[1]; AAD1 v3, 200 g ae/ha",3
same,% Injury Ave,"[1]; AAD1 v3, 800 g ae/ha",51.9%
same,% Injury Range,"[1]; AAD1 v3, 800 g ae/ha",20-100%
same,individuals with 20-40% injury,"[1]; AAD1 v3, 800 g ae/ha",5
same,individuals with <20% injury,"[1]; AAD1 v3, 800 g ae/ha",0
same,individuals with >40% injury,"[1]; AAD1 v3, 800 g ae/ha",3
"O=C(O)COc1ccc(Cl)cc1Cl [2,4-D, 2,4-dichlorophenoxyacetic acid]","conversion of 2,4-D to DCP","AAD1 (v1); partially purified proteins, in vitro",50-100%
same,"2,4-D degraded to DCP as measured by HPLC","AAD1 (v1); regardless of assay conditions (longer incubations, more enzyme)",50-75%
same,injury of some AAD1 (v3) T1 individuals,"[1]; 3,200 g ae/ha",little or no injury
same,T1 plants uninjured,"[1]; AAD1 (v3), 200 g ae/ha",> 73%
same,% Injury Ave,[1]; [3],24.3%
same,individuals with 20-40% injury,[1]; [3],1
same,individuals with <20% injury,[1]; [3],10
same,individuals with >40% injury,[1]; [3],5
same,% Injury Ave,[1]; [4],14%
same,individuals with 20-40% injury,[1]; [4],4
same,individuals with <20% injury,[1]; [4],11
same,individuals with >40% injury,[1]; [4],1
same,% Injury Ave,[1]; [5],14.7%
same,individuals with 20-40% injury,[1]; [5],4
same,individuals with <20% injury,[1]; [5],11
same,individuals with >40% injury,[1]; [5],1
Nc1c(Cl)c(F)nc(OCC(=O)O)c1Cl [Fluroxypyr],enzyme activity on substrate (HPLC),"AAD1 (v1); AAD1 (v1) cell extract, same conditions as 2,4-D",No enzyme activity was detected
same,resistance/tolerance in AAD1 (v3)-transformed T1 Arabidopsis,[1],No resistance was observed
CC(Oc1ccc(Oc2ncc(C(F)(F)F)cc2Cl)cc1)C(=O)O (centres unmarked) [haloxyfop],% Injury Ave,"[1]; 100 g ae/ha, AAD1 v3",0.0%
same,% Injury Range,"[1]; 100 g ae/ha, AAD1 v3",0%
same,% Injury Ave,"[1]; 200 g ae/ha, AAD1 v3",0.0%
same,% Injury Range,"[1]; 200 g ae/ha, AAD1 v3",0%
same,% Injury Ave,"[1]; 400 g ae/ha, AAD1 v3",6.3%
same,% Injury Range,"[1]; 400 g ae/ha, AAD1 v3",0-20%
same,% Injury Ave,"[1]; 800 g ae/ha, AAD1 v3",46.3%
same,% Injury Range,"[1]; 800 g ae/ha, AAD1 v3",0-85%
same,% Injury Ave,"[1]; 1600 g ae/ha, AAD1 v3",65.0%
same,% Injury Range,"[1]; 1600 g ae/ha, AAD1 v3",0-100%
same,resistance/tolerance in AAD1 (v3)-transformed T1 Arabidopsis,[1],increased tolerance
same,% Injury 20-40%,"[1]; 100 g ae/ha, AAD1 v3",0
same,% Injury <20%,"[1]; 100 g ae/ha, AAD1 v3",4
same,% Injury >40%,"[1]; 100 g ae/ha, AAD1 v3",0
same,% Injury 20-40%,"[1]; 200 g ae/ha, AAD1 v3",0
same,% Injury <20%,"[1]; 200 g ae/ha, AAD1 v3",4
same,% Injury >40%,"[1]; 200 g ae/ha, AAD1 v3",0
same,% Injury 20-40%,"[1]; 400 g ae/ha, AAD1 v3",1
same,% Injury <20%,"[1]; 400 g ae/ha, AAD1 v3",3
same,% Injury >40%,"[1]; 400 g ae/ha, AAD1 v3",0
same,% Injury 20-40%,"[1]; 800 g ae/ha, AAD1 v3",1
same,% Injury <20%,"[1]; 800 g ae/ha, AAD1 v3",1
same,% Injury >40%,"[1]; 800 g ae/ha, AAD1 v3",2
same,% Injury 20-40%,"[1]; 1600 g ae/ha, AAD1 v3",0
same,% Injury <20%,"[1]; 1600 g ae/ha, AAD1 v3",1
same,% Injury >40%,"[1]; 1600 g ae/ha, AAD1 v3",3
same,% Injury 14 DAT,"[2]; 8.8 g ae/ha, construct 3404 event 001 clone 016",0%
same,% Injury 14 DAT,"[2]; 8.8 g ae/ha, construct 3404 event 022 clone 019",0%
same,% Injury 14 DAT,"[2]; 8.8 g ae/ha, construct 3404 event 038 clone 016",0%
same,% Injury 14 DAT,"[2]; 17.5 g ae/ha, construct 3404 event 022 clone 016",0%
same,% Injury 14 DAT,"[2]; 17.5 g ae/ha, construct 3404 event 022 clone 020",0%
C[C@@H](Oc1ccc(Oc2cnc3cc(Cl)ccc3n2)cc1)C(=O)O [quizalofop],injury of most AAD1 (v3) T0 lines,"[2]; 8× field dose (64× lethal dose), 14 DAT",no visible injury
same,% Injury 14 DAT,"[2]; 8.8 g ae/ha, construct 3404 event 001 clone 017",0%
same,% Injury 14 DAT,"[2]; 8.8 g ae/ha, construct 3404 event 001 clone 019",30%
same,% Injury 14 DAT,"[2]; 8.8 g ae/ha, construct 3404 event 022 clone 021",0%
same,% Injury 14 DAT,"[2]; 8.8 g ae/ha, construct 3404 event 038 clone 017",0%
same,% Injury 14 DAT,"[2]; 17.5 g ae/ha, construct 3404 event 022 clone 017",0%
same,% Injury 14 DAT,"[2]; 35 g ae/ha, construct 3404 event 001 clone 020",0%
same,% Injury 14 DAT,"[2]; 35 g ae/ha, construct 3404 event 017 clone 018",0%
same,% Injury 14 DAT,"[2]; 35 g ae/ha, construct 3404 event 017 clone 019",0%
same,% Injury 14 DAT,"[2]; 35 g ae/ha, construct 3404 event 022 clone 022",0%
same,% Injury 14 DAT,"[2]; 35 g ae/ha, construct 3404 event 033 clone 012",0%
same,% Injury 14 DAT,"[2]; 35 g ae/ha, construct 3404 event 038 clone 019",70%
same,% Injury 14 DAT,"[2]; 35 g ae/ha, construct 3404 event 038 clone 020",80%
same,% Injury 14 DAT,"[2]; 70 g ae/ha, construct 3404 event 017 clone 020",0%
same,% Injury 14 DAT,"[2]; 70 g ae/ha, construct 3404 event 017 clone 021",0%
same,% Injury 14 DAT,"[2]; 70 g ae/ha, construct 3404 event 022 clone 023",0%
same,% Injury 14 DAT,"[2]; 70 g ae/ha, construct 3404 event 033 clone 013",0%
same,% Injury 14 DAT,"[2]; 70 g ae/ha, construct 3404 event 033 clone 014",0%
same,% Injury 14 DAT,"[2]; 70 g ae/ha, construct 3404 event 038 clone 021",80%
same,% Injury 14 DAT,"[2]; 70 g ae/ha, construct 3404 event 038 clone 022",80%
same,% Injury 14 DAT,"[2]; 140 g ae/ha, construct 3404 event 017 clone 022",0%
same,% Injury 14 DAT,"[2]; 140 g ae/ha, construct 3404 event 017 clone 023",30%
same,% Injury 14 DAT,"[2]; 140 g ae/ha, construct 3404 event 033 clone 015",0%
same,% Injury 14 DAT,"[2]; 280 g ae/ha, construct 3404 event 017 clone 024",30%
same,% Injury 14 DAT,"[2]; 280 g ae/ha, construct 3404 event 017 clone 025",20%
same,% Injury 14 DAT,"[2]; 280 g ae/ha, construct 3404 event 033 clone 016",0%
